This note sets out measurements from patent publication US8361987B2, “DNA vaccines encoding heat shock proteins” (priority 2002, dated 2013).

Test [1] relates to adjuvant arthritis (AA). Kind of test: Adoptive transfer of Con A-activated splenocytes from peptide-vaccinated rats, then AA induction in recipients. Particulars: 5×10^7 Con A-activated splenocytes of peptide-vaccinated donors iv; AA induced three days later. In kind it is in vivo, Lewis rats. On the procedure: Spleen cells were prepared from peptide-vaccinated rats 26 days after the induction of AA. The splenocytes (10^7 cells per ml) were activated with 2.5 μg/ml of Con A for 48 hr at 37° C. in a humidified atmosphere of 5% CO2. The cells were washed with sterile PBS and injected iv into naïve rats (5×10^7 cells per rat). Three days after the transfer of the splenocytes, AA was induced.
To learn whether the protection triggered by Hu3-vaccination could be adoptively transferred by activated T-cells, splenocytes prepared from Hu3 vaccinated rats were stimulated in vitro for 2 days with the T-cell mitogen Con A, washed, and injected iv (5×10^7 cells per rat) into naïve rats. Only the recipients of cells taken from Hu3-vaccinated rats were protected against the subsequent induction of AA (FIGS. 4A and 4B). […] Thus, inhibition of AA by vaccination with Hu3 could be adoptively transferred by activated T-cells.

Test [2] deals with lymph node cells (LNC). Kind of test: T-cell proliferation ([methyl-3H]-thymidine incorporation, stimulation index) of cells from vaccinated rats. In kind it is cell-based, Lewis rats. The conditions noted are these: for T-cell response to the immunizing peptide: LNC of peptide-vaccinated rats after AA induction. On the procedure:
Popliteal and inguinal lymph node cells (LNC) taken 26 days after the induction of AA were cultured in quadruplicates in 200 μl round bottom microtiter wells (Costar Corp., Cambridge, USA) at 2×10^5 cells per well with or without antigen. The T-cell mitogen Concanavalin A (Con A) was used as a positive control for T-cell proliferation. Cultures were incubated for 96 hrs at 37° C. in a humidified atmosphere of 5% CO2. T-cell responses were detected by the incorporation of [methyl-^3H]-thymidine (Amersham, Buckinghamshire, UK; 1 μCi/well), which was added to the wells for the last 18 hours. The stimulation index (SI) was computed as the ratio of the mean c.p.m. of antigen- or mitogen-containing wells to control wells cultured with medium alone.

The test system of test [3] is IFNγ, IL-10 and TGFβ1 secretion by LNC. Kind of test: Cytokine assays (ELISA of culture supernatants after 72 hrs antigen stimulation). In kind it is cell-based, Lewis rats. The text has this: Supernatants were collected after 72 hrs of stimulation with each of the antigens tested. Rat IL-10 and IFNγ were quantitated in culture supernatants by enzyme-linked immunosorbent assay (ELISA) using Pharmingen's OPTEIA kit (Pharmingen, San Diego, USA). Rat TGFβ1 was quantified using the TGFβ1 Emax® ImmunoAssay System (Promega, Madison, USA) according to the manufacturer's instructions. Cytokine levels in supernatants are expressed as pg/ml based on calibration curves constructed using recombinant cytokines as standards. The lower limits of detection for the experiments described in this paper were 15 pg/ml for TGFβ1, IL-10 and IFNγ.

Test [4] has as its system adjuvant arthritis (AA). Kind of test: Adjuvant arthritis (AA) induction and assessment after DNA or peptide vaccination. In kind it is in vivo, Lewis rats. How it is done: Plasmid DNA was prepared in large scale and injected after pretreatment with cardiotoxin (Sigma, Rehovot, Israel). Briefly, rats were vaccinated in the quadriceps three times (on days −40, −26 −12 relative to AA induction) with 150 μg of pcDNA3, pI, pII, pIII, pIV or pV. Endotoxin levels were checked by Limulus Amoebocyte Lysate and found always to be under acceptable levels for in vivo use (less than 0.02 EU/μg DNA). AA was induced 12 days after the last injection of DNA. The empty vector pcDNA3 was used as a DNA vaccination control.
AA was induced using 1 mg per rat of heat-killed Mt strain H37Ra (Difco). The day of AA induction was designated as day 0, and disease severity was assessed by direct observation of all 4 limbs in each animal. A relative score between 0 and 4 was assigned to each limb, based on the degree of joint inflammation, redness and deformity; thus the maximum possible score for an individual animal was 16. Arthritis was also quantified by measuring hind limb diameter with a caliper. Measurements were taken on the day of AA induction and 26 days later, and they are presented as the mean±SEM of the difference between the two values. The person who scored the disease was blinded to the identity of the groups. […]

[5] abbreviates: LNC day 26 after AA induction, 72 hr.
[6] abbreviates: LNC of peptide-vaccinated rats, day 26 after AA induction.

Regarding “AYDEEARRGLERGLNALADA [Mt3, mycobacterial HSP65 peptide, counterpart of Hu3, reference compound]”, the “protection of recipients against subsequent induction of AA” value in test [1] is “No protection”. In addition, the “T-cell response to the immunizing peptide” value (“T-cell response” for short) in test [2] is “significant and specific T-cell responses”.

In the case of “KFGADARALMLQGVDLLADA (listed as Homo sapiens) [Hu3]”, the “protection of recipients against subsequent induction of AA” value in test [1] is reported as “protected”. Also, in test [3] (setting [5]), the “IFNγ secretion upon stimulation with mycobacterial antigens (PPD, HSP65, Mt176-190)” value is “reduction”; the “IL-10 secretion upon stimulation with mycobacterial antigens (PPD, HSP65, Mt176-190)” value is recorded as “increase”; the “TGFβ1 secretion upon stimulation with mycobacterial antigens (PPD, HSP65, Mt176-190)” value was “increase”. Besides, the “secretion of IFNγ, stimulated with Hu3” value in test [3] (LNC day 26 after AA induction, relative to respective controls (FIG. 12B)) was “increased”. For the same sequence, in test [3] (setting [6]), the “cytokine response to whole HSP60” value is reported as “predominantly TFGβ1”; the “cytokines secreted in response to Hu3” value was “secreted IFNγ, IL-10 and TGFβ1”. Also, in test [2] (LNC day 26 after AA induction), the “T-cell proliferative responses to both self- and mycobacterial antigens” value was “up-regulation”; the “proliferative response to HSP60” value is “induction of a specific response”; the “proliferative response to control peptide Hu12” value is “no responses”. Further, in test [2] (LNC day 26 after AA induction, stimulated in vitro with Hu3), the “proliferative response to Hu3” value is “recognized”. For the same sequence, the “T-cell proliferative responses to mycobacterial antigens (PPD, HSP65, Mt176-190)” value in test [2] (LNC day 26 after AA induction, relative to controls) is listed as “up-regulated”. In addition, the “T-cell response” value in test [2] was “significant and specific T-cell responses”. The ankle swelling in test [4] (peptide vaccination 100 μg in IFA day −7, day 26 after AA induction, vs 32.2±3.5 in PBS/IFA, p=0.02) is 14.2±4.7. The “AA disease severity after peptide vaccination” value in test [4] (single i.p. dose of 100 μg peptide in IFA on day −7, compared to non-immunized rats or PBS, Hu12 or Mt3) is given as “significantly decreased disease”.

Regarding “EEIAQVATISANGDKEIGNI [Hu12, human HSP60 peptide 166-185, control peptide, reference compound]”, the “T-cell response” value in test [2] was “significant and specific T-cell responses”; in test [2] (listed as HU12), “proliferated”.
